Tests used:
human c-Kit = target: T1, human c-Kit (Homo sapiens, UniProt P10721); assay: c-Kit kinase assay (HTScan Receptor Kinase Assay Kit, DELFIA); format: biochemical; conditions: 200 μM ATP
T1 construct: human c-Kit (Thr544-Val976); purchased Cell Signaling Technologies; host or cells: baculovirus expression system
Protocol: (f) An In Vitro Assay which Determines the Ability of a Test Compound to Inhibit c-Kit Kinase.
The ability of compounds to inhibit c-Kit tyrosine kinase activity was assayed using HTScan™ Receptor Kinase Assay Kits (Cell Signaling Technologies, Danvers, Mass.). c-Kit tyrosine kinase is obtained in partially purified form from GST-kinase fusion protein which is produced using a baculovirus expression system from a construct expressing human c-Kit (Thr544-Val976) with an amino-terminal GST tag. The protein was purified by one-step affinity chromatography using glutathione-agarose. An anti-phosphotyrosine monoclonal antibody, P-Tyr-100, is used to detect phosphorylation of biotinylated substrate peptide KDR (Tyr996). Enzymatic activity was tested in 60 mM HEPES, 5 mM MgCl2 5 mM MnCl2 200 μM ATP, 1.25 mM DTT, 3 μM Na3VO4, 1.5 mM peptide, and 50 ng c-Kit. Bound antibody was detected using the DELFIA system (PerkinElmer, Wellesley, Mass.) consisting of DELFIA® Europium-labeled Anti-mouse IgG (PerkinElmer, #AD0124), DELFIA® Enhancement Solution (PerkinElmer, #1244-105), and a DELFIA® Streptavidin coated, 96-well Plate (PerkinElmer, AAAND-0005). Fluorescence was measured on a WALLAC Victor 2 plate reader and reported as relative fluorescence units (RFU). Data were plotted using GraphPad Prism (v4.0a) and IC50's were calculated using a sigmoidal dose response curve fitting algorithm.
Test compounds were dissolved in dimethylsulphoxide (DMSO) to give a 20 mM working stock concentration. Each assay was set up as follows: 100 μl of 10 mM ATP is added to 1.25 ml 6 mM substrate peptide. The mixture was diluted with dH20 to 2.5 ml to make 2×ATP/substrate cocktail ([ATP]=[…], [substrate]=3 mM). The enzyme was immediately transferred from −80° C. to ice. The enzyme was allowed to thaw on ice. The mixture was microcentrifuged briefly at 4° C. to bring liquid to the bottom of the vial and returned immediately to ice. 10 μl of DTT (1.25 mM) was added to 2.5 ml of 4× HTScan™ Tyrosine Kinase Buffer (240 mM HEPES pH 7.5, 20 mM MgCl2, 20 mM MnCl, 12 mM NaVO3) to make DTT/Kinase buffer. 1.25 ml of DTT/Kinase buffer was transferred to enzyme tube to make a 4× reaction cocktail ([enzyme]=4 ng/μL in 4× reaction cocktail). 12.5 μl of the 4× reaction cocktail was incubated with 12.5 μl/well of prediluted compound of interest (usually around 10 μM) for 5 minutes at room temperature. 25 μl of 2×ATP/substrate cocktail is added to 25 μl/well preincubated reaction cocktail/compound. The reaction plate was incubated at room temperature for 30 minutes. 50 μl/well Stop Buffer (50 mM EDTA, pH 8) was added to stop the reaction. […] 615 nm fluorescence emission is detected using an appropriate Time-Resolved Plate Reader.

human PDGFR-beta = target: T2, human PDGFR-beta (Homo sapiens, UniProt P09619); assay: PDGFR-beta radioisotope kinase assay; format: biochemical; conditions: 100 μM ATP; for IC50: read-out: PDGFRb IC50
T2 construct: fragment (amino acids 558-1106) amino-terminally fused to 6-histidine; 6xHis (N); made in house
T2 sequence (P09619 558-1106): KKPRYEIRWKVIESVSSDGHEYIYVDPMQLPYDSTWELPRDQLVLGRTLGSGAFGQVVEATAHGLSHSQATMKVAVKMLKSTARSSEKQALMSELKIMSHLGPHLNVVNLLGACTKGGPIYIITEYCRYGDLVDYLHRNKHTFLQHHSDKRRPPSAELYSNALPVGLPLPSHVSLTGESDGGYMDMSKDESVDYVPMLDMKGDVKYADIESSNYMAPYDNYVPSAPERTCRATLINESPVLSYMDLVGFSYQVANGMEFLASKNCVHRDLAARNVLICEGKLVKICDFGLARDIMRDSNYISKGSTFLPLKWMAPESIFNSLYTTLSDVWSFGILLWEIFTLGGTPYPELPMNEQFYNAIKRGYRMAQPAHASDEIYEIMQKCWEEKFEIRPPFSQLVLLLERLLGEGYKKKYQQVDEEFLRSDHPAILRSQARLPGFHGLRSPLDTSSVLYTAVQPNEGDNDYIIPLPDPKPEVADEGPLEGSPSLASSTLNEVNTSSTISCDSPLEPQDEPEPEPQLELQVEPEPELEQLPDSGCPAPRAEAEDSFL
Protocol: (a) An In Vitro Assay which-Determines the Ability of a Test Compound to Inhibit a Receptor Tyrosine Kinase.
The ability of compounds to inhibit receptor kinase (VEGFR2 and PDGFR-beta) activity was assayed using standard radioisotope assay for kinase. […] The proteins were purified using Ni2+/NTA agarose affinity column to purity
For PDGFR-beta assay, p33 ATP tracers were incubated with purified recombinant PDGFR-beta kinase to monitor the enzyme activity. In this assay, reactions were carried out in the presence of 0.4 mg/ml PDGFR-beta kinase and 200 nM of Abl peptide substrate ([…]). The reaction was carried out at 30° C. for 120 minutes in a final assay condition contained 20 mM Tris-HCl, pH 7.5, 100 mM NaCl, 0.05 mM EDTA, 0.05% NP-40, 1 mM DTT 50% glycerol and 100 μM ATP. An equal volume of 25% TCA was added to stop the reaction and precipitate the labeled peptides. Precipitated proteins were trapped onto glass fiber B filterplates and excess unlabeled p33 ATP was washed off. The plates were allowed to air-dry prior to the addition of 30 uL/well of Packard Microscint 20. The amount of incorporated isotope was measured using a Perkin Elmer TopCount plate reader. Different concentrations of compounds were added to reaction to assess the activity of compounds to inhibit PDGF-beta kinase. IC50 was calculated using Prism software with sigmoidal dose-response curve fitting.

T1 sequence (P10721 544-976): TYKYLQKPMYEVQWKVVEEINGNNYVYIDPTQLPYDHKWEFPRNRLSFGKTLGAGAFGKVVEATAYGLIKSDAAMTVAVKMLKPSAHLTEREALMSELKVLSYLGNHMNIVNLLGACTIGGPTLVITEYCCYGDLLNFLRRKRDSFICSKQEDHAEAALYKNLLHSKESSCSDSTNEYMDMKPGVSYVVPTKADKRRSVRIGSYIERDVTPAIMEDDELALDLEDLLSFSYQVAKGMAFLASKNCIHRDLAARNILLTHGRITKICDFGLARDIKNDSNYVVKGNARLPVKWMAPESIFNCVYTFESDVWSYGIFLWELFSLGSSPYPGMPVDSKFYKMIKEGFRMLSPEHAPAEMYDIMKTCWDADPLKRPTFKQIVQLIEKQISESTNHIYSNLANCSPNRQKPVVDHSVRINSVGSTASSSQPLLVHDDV

Row | IC50 (human c-Kit) | PDGFRb IC50 (human PDGFR-beta) | IC50 (human PDGFR-beta) | SMILES
1 | < 0.1 µM | Inactive | – | COc1cc2c(Oc3ccc4[nH]c(C)cc4c3F)ncnc2cc1OCCCCCCC(=O)NO [Compound 11, 7-(4-(4-fluoro-2-methyl-1H-indol-5-yloxy)-6-methoxyquinazolin-7-yloxy)-N-hydroxyheptanamide]
2 | 0.1 to 1 µM | – | 1 to 10 µM | COc1cc2c(Nc3ccc4[nH]c(C)cc4c3F)ncnc2cc1OCCCCCC(=O)NO [Compound 13, 6-(4-(4-fluoro-2-methyl-1H-indol-5-ylamino)-6-methoxyquinazolin-7-yloxy)-N-hydroxyhexanamide]
3 | 0.1 to 1 µM | – | > 10 µM | COc1cc2c(Nc3ccc4[nH]c(C)cc4c3F)ncnc2cc1OCCCCCCC(=O)NO [Compound 14, 7-(4-(4-fluoro-2-methyl-1H-indol-5-ylamino)-6-methoxy-quinazolin-7-yloxy)-N-hydroxyheptanamide]
4 | 0.1 to 1 µM | – | > 10 µM | Cc1cc2c(F)c(Nc3ncnc4cc(OCCCN5CCCC5)c(OCCCCCCC(=O)NO)cc34)ccc2[nH]1 [Compound 20, 7-(4-(4-Fluoro-2-methyl-1H-indol-5-ylamino)-7-(3-(pyrrolidin-1-yl)propoxy)quinazolin-6-yloxy)-N-hydroxyheptanamide]

— patent publication US20090076044A1, “VEGFR INHIBITORS CONTAINING A ZINC BINDING MOIETY” (priority 2007, published 2009)
